How the values were obtained:
[1] = target: T1, CRISP2 (Homo sapiens, UniProt P16562); test: MST binding to CRISP2; design: species or system mammalian; details: calcium chloride titration, read-out: Kd, calcium binding by CRISP2
T1 construct: made in house; host or cells: E. coli BL21
T1 sequence (P16562 22-243): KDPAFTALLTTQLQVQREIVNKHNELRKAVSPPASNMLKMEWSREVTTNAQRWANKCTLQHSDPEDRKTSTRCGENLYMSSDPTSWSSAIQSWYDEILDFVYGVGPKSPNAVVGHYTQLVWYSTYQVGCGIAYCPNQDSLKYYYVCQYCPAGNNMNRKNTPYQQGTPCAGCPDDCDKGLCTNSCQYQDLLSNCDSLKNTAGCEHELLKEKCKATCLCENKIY
Excerpt: To confirm the direct interaction of PSP94 with CRISP3 and to test whether PSP94 would also bind other CAP family members such as yeast Pry1, or CRISP2, we performed in vitro protein binding assay using microscale thermophoresis (MST). Therefore, PSP94 and the CAP family members, Pry1, CRISP2, and CRISP3, were expressed as fusion proteins with a C-terminal polyhistidine tag in Escherichia coli, and the proteins were affinity purified on nickel-NTA agarose beads. The purified CAP proteins were then fluorescently labeled using RED-tris-NTA and incubated with varying concentrations of PSP94. […] PSP94 thus has high binding affinity for all three CAP proteins tested, and it also binds the CAP domain of Pry1 (Pry1^CAP) alone.
DNA encoding proteins of interest were PCR amplified and cloned into NcoI and XhoI restriction sites of pET22b, which contains a PelB signal sequence to direct the secretion of expressed protein into the periplasmic space. Plasmids were transformed into E. coli BL21, and proteins were expressed with a C-terminal polyhistidine tag. Different induction strategies were used: overnight induction with lactose at 24 °C for Pry1, CRISP2, and PSP94 and 6 h of induction with 0.4 mM IPTG at 24 °C for the CAP domain of Pry1. Cells were collected and lysed, and the soluble cell lysate was incubated with nickel-nitrilotriacetic acid beads as per the manufacturer instructions (Qiagen). Beads were washed and loaded onto a Ni^2+-NTA column, and proteins were eluted with a buffer containing 60 mM NaH2PO4, 300 mM NaCl, and 300 mM imidazole, pH 8.0. […] Protein concentration was determined by Lowry assay using the Folin reagent and bovine serum albumin as protein standard.
MST experiments were performed to assess protein–protein, protein–lipid, and protein–calcium interactions using a Monolith NT.115 (Nanotemper Technologies). […] The dissociation constant Kd was obtained by plotting the normalized fluorescence (Fnorm) against the logarithm of ligand concentration. […]

[2] = target: T2, PSP94 (Homo sapiens, UniProt P08118); test: MST binding to PSP94; details: calcium chloride titration
T2 construct: made in house; host or cells: E. coli BL21
T2 sequence (P08118 21-114): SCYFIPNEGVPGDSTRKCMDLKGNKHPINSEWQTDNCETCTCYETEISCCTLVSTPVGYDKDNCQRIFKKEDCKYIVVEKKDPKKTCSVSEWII
Experimental: To test whether the interaction between PSP94 and CAP family members affects their sterol binding in vitro, we performed ligand binding assays using a more water-soluble cholesterol derivative, cholesterol sulfate. […] In the presence of an equimolar concentration of PSP94, however, sterol binding by the CAP proteins was blocked (Fig. 3B).
MST experiments were performed to assess protein–protein, protein–lipid, and protein–calcium interactions using a Monolith NT.115 (Nanotemper Technologies). Proteins were labeled using the RED-tris-NTA His tag protein labeling kit. Labeled CAP proteins, 100 nM, were mixed with a serial dilution of unlabeled PSP94, PSP9^F24G, cholesterol sulfate, or calcium chloride, prepared in binding buffer (20 mM Tris pH 7.5, 30 mM NaCl, 0.05% Triton X-100). Samples were loaded into MST standard capillaries, and MST measurements were performed using an 80% laser power setting. The dissociation constant Kd was obtained by plotting the normalized fluorescence (Fnorm) against the logarithm of ligand concentration. Experiments were performed in triplicates, and data were fitted using the Kd model of the MO.Affinity Analysis software (Nanotemper Technologies). For binding inhibition studies, CAP proteins and PSP94 were preincubated for 5 min at 24 °C before performing binding studies with cholesterol sulfate.

[3] = test system: sterol export by CAP proteins (Pry1, CRISP2, CRISP3); test: In vivo sterol export assay ([14C]cholesteryl acetate export) in yeast; assay type: cell-based, Saccharomyces cerevisiae; details: 10 mM calcium in medium, cells expressing CRISP2 and PSP94
Excerpt: To test whether expression of PSP94 would affect the function of Pry1 in sterol export, we expressed PSP94 fused to the N-terminal signal sequence from Pry1 (amino acids 1–19) from a constitutive alcohol dehydrogenase promoter (ADH1) to direct the protein into the yeast secretory pathway. This PSP94-containing plasmid was then transformed into heme-deficient yeast cells lacking the sterol deacetylase Say1 (hem1Δ say1Δ). This strain is able to take up radiolabeled [^14C]cholesterol, acetylate it in an alcohol acetyltransferase 2 (Atf2)-dependent pathway, and secrete the resulting radiolabeled cholesteryl acetate back into the culture medium ([29]). […] To test whether expression of PSP94 would affect the synthesis or secretion of Pry1, CRISP2, or CRISP3, we coexpressed FLAG-tagged PSP94 with hemagglutinin (HA)-tagged Pry1, CRISP2, or CRISP3, separated yeast cells from the culture medium, precipitated proteins from both fractions with trichloroacetic acid (TCA), and detected the tagged proteins by Western blotting.
The sterol export assay was performed as described ([29]). […] Extracted radiolabeled lipids were quantified by scintillation counting, and volumes corresponding to 10,000 cpm (counts per minute) were dried. […] TLC plates were then exposed to phosphorimager screens, and radiolabeled lipids were visualized and quantified using a phosphorimager. […]

[4] = target: T3, CRISP2–PSP94 heteromeric complex (Homo sapiens, UniProt P16562); test: Coimmunoprecipitation of PSP94-FLAG with CRISP2-HA from culture medium; assay type: cell-based, Saccharomyces cerevisiae
T3 construct: expressed in transfected cells; host or cells: Saccharomyces cerevisiae, plasmids pRS416 (CRISP2) and pRS414 (PSP94), ADH1 promoter
Experimental: To test whether calcium also affects the formation of the heteromeric complex in vivo, we analyzed complex formation by coimmunoprecipitation. Cells expressing CRISP2-HA and PSP94-FLAG were cultivated in the absence or presence of calcium (5 and 10 mM CaCl2), CRISP2-HA was immunoprecipitated from the culture medium, and Western blots were probed for the presence of PSP94-FLAG.
For Coimmunoprecipitation analysis, CRISP2 wildtype and mutant versions were tagged with an HA epitope tag, and wildtype PSP94 and the PSP94^F24G mutant version were fused to a FLAG tag. Yeast strains expressing these proteins were grown overnight and collected by centrifugation. The cell pellet was resuspended in lysis buffer (50 mM Tris-HCl pH 7.5, 100 mM NaCl, 0.1% NP-40, 10% glycerol, protease inhibitor, and 1 mM PMSF), and cells were broken with glass beads in a Precellys homogenizer. The culture medium was concentrated using size-exclusion protein concentrator spin columns (3K MWCO, Pierce, Thermo Scientific). Protein concentration was estimated by Bradford assay (Bio-Rad), and both the cell lysate and concentrated culture medium were incubated overnight at 4 °C with anti-HA magnetic beads (Pierce, Thermo Scientific). […] Samples were denatured for 10 min at 95 °C and analyzed by SDS-PAGE and Western blotting. […]

SMILES: [Ca+2] [calcium, calcium chloride]
- Kd [1]: 0.052 ± 0.0009 µM
- Kd [2]: 376 ± 1.7 µM
- effect on sterol export by CRISP2 in the presence of PSP94 [3]: restored sterol binding and export by CRISP2
- complex formation between CRISP2 and PSP94 ([4]; cells grown in 5 mM calcium): reduced
- complex formation between CRISP2 and PSP94 ([4]; cells grown in 10 mM calcium): could no longer be detected
